Results on one molecule are retold here after patent publication US20160184274A1, “Methods for inhibiting mesenchymal phenotype after epithelial-to-mesenchymal transition” (Fibrostatin, S.L., priority 2014, published 2016).

“Also recorded” adds a separate entry of the source.

The test system of one experiment is RAW264.7. As to the kind of experiment: Collagen IV expression in RAW264.7. The experiment is classed as cell-based. As to conditions: data not shown.
For experiment [1], the system named is mesenchymal A549 spheroids. As to the kind of experiment: Intracellular doxorubicin accumulation and viability in spheroids. The experiment is classed as cell-based, Human. Particulars: FIG. 9. The protocol:
FIG. 9. T12 enhances intracellular accumulation of doxorubicin in A549 mesenchymal spheroids. A549 spheroids were subjected to EMT induction with TGF-β and TNF-α during 4 days, and treated with T12 (10 μM) or maintained untreated (Placebo) for the last 2 days. Three hours before spheroid analysis doxorubicin (1 μM) was added. Spheroids were fixed and analyzed by immunofluorescence confocal microscopy with anti-α1α2(IV) antibodies for collagen IV network visualization (grey). Doxorubicin was detected by its own auto-fluorescence. […] Three-dimensional spheroid cultures of A549 cells were obtained using a hanging droplet method (Kelm et al., 2003. Biotechnol. Bioeng. 83: 173-180.; Kumar et al., 2013. PLoS One. 8: e68597). Briefly, cells were grown to approximately 80% confluence on adherent tissue-culture flasks. Then cells were trypsinized, dispersed in DMEM/10% FBS, and counted using an automated cell counter (MOXI® Z, Orflo). The cell suspension was diluted to a 10^6 cells/mL-concentration, and 25 μl of the cell suspension were pipetted onto the underside of a sterile 10-cm tissue culture plate lid. Each lid was loaded with approximately 55 droplets. After loading, the lid was placed onto a tissue culture plate containing 6 mL of sterile PBS (phosphate-buffered saline) and incubated for 48 hours to facilitate spheroid formation. […]

As for `COc1ccc(-c2ccc(-c3cccc(C)c3)c(C)c2)c(CCC(=O)O)c1` [T12, 3-[4″-methoxy-3,2′-dimethyl-(1,1′;4′,1″)terphenyl-2″-yl] propionic acid], the “collagen IV expression” value in the experiment on RAW264.7 is “significantly reduced collagen IV expression”. Besides, the “intracellular accumulation of doxorubicin (nuclei containing doxorubicin)” value in experiment [1] (T12 10 μM last 2 days, doxorubicin 1 μM 3 h before analysis) was “accumulating doxorubicin inside the cells; also recorded: more abundant in spheroids treated with doxorubicin and T12 than in spheroids treated only with doxorubicin”. Besides, the “viability of spheroids with doxorubicin” value in experiment [1] (T12 10 μM plus doxorubicin 1 μM) is “sharply reduced the viability”.
